Results taken from patent US20150148249A1, “METHOD OF IMPROVING THE SENSITIVITY OF COMPETITIVE IMMUNOASSAY” (SHENZHEN BIOEASY BIOTECHNOLOGY CO., LTD, priority 2012, published 2015).
Where “and” joins values, the source holds several entries; their conditions need not be identical. Identical values can stand only once.

How the values were obtained:
Type in all cases: binding
ciprofloxacin antibody [1] = assay: Competitive ELISA for ciprofloxacin, pre-reaction mode vs direct addition (Embodiment 1)
Description: Coat the ELISA plate with ciprofloxacin BSA conjugate, 1 μg/mL, 100 μL per well, blocking overnight at 4° C. Then block with 3% skimmed milk powder the following day. Prepare ciprofloxacin standards, 0 ppb, 1 ppb, 3 ppb, 9 ppb, 27 ppb, 81 ppb with the wash buffer (PBST).
The experiment is divided into two groups.
Group 1: pre-incubate 60 μL standards and 60 μL diluted ciprofloxacin antibody for 20 minutes at 37° C.; then take 100 μL reaction product and add to the ELISA plate covering with ciprofloxacin conjugate, react for 30 minutes at 37° C.; wash the plate, add HRP labeled secondary antibody, react for 30 minutes at 37° C., wash the plate; add chromogenic agent 100 μL, react for 15 minutes at 37° C.; and finally add 50 μL termination solution, then measure the OD450 with a microplate reader.
Group 2: add into the ELISA plate covering with ciprofloxacin conjugate with 50 μL standard and 50 μL antibody, in the sequence; react for 30 minutes at 37° C., wash the plate; add HRP labeled secondary antibody, react for 30 minutes at 37° C., wash the plate; add chromogenic agent 100 μL, react for 15 minutes at 37° C.; and finally add 50 μL termination solution, then measure OD450 with a microplate reader.

ciprofloxacin antibody [2] = assay: Competitive ELISA for ciprofloxacin, different re-reaction times (Embodiment 2)
Description: (§1) Coat the ELISA plate with ciprofloxacin BSA conjugate, 1 μg/mL, 100 μL per well, blocking overnight at 4° C. Then block with 3% skimmed milk powder the following day. Prepare ciprofloxacin standards, 0 ppb, 1 ppb, 5 ppb, and 10 ppb with wash buffer.
The experiment is divided into 5 groups, each group takes 100 μL standard and 100 μL ciprofloxacin antibody, pre-react for 20 minutes at 37° C. in the microplates, then add to ciprofloxacin ELISA plates:
Take 120 μL pre-reaction product to the ciprofloxacin ELISA plates from group 1, group 2, group 3 and group 4, and resume reacting for 30 minutes, 20 minutes, 10 minutes and 5 minutes respectively; wash the plate; add HRP labeled secondary antibody, react for 30 minutes at 37° C., wash the plate; add chromogenic agent 100 μL, react for 15 minutes at 37° C.; and finally add 50 μL termination solution, then measure the OD450.
Take 20 μL pre-reaction solution of antibody and standard from group 5 and add to the ciprofloxacin ELISA plate, react for 1 minute, discard the liquid in the well, and pat dry on absorbent paper, then add 20 μL mixture solution and react for 1 minute, repeat for 6 times altogether; wash the plate; add HRP labeled secondary antibody, react for 30 minutes at 37° C., wash the plate; add chromogenic agent 100 μL, react for 15 minutes at 37° C.; and finally add 50 μL termination solution, then measure the OD450.

ciprofloxacin antibody [3] = assay: Competitive ELISA for ciprofloxacin, different pre-reaction times (Embodiment 3); conditions: re-reaction 1 min, 6 times
Description: as §1
The experiment is divided into 4 groups, each group takes 100 μL standard and 100 μL ciprofloxacin antibody, pre-incubate for 5 minutes, 10 minutes, 15 minutes and 20 minutes at 37° C. in the microplates respectively, then take 20 μL mixture solutions of antibody and standard and add to the ciprofloxacin ELISA plate, react for 1 minute, discard the liquid in the well, and pat dry on absorbent paper, then add 20 μL mixture solution and react for 1 minute, repeat for a total 6 times; wash the plate; add HRP labeled secondary antibody, react for 30 minutes at 37° C., wash the plate; add chromogenic agent 100 μL, react for 15 minutes at 37° C.; and finally add 50 μL termination solution, then measure the OD450.

Ractopamine antibody = assay: Competitive ELISA for Ractopamine (Embodiment 4)
Description: Preparing the Ractopamine microplate: Ractopamine coating antigen is added to the microplate, 100 μL/well, react for 2 hours at 37° C.; discard the liquid in the well; add blocking solution into the microplate, 100 μL/well, blocking for 1 hour at 37° C.; wash 3 times with wash buffer, leave for reservation. Prepare Ractopamine standards with concentrations of 0 ppb, 0.05 ppb, 0.15 ppb, 0.45 ppb, 1.35 ppb, 4.05 ppb respectively, with wash buffer.
Group 1: add 60 μL the standard and the Ractopamine antibody respectively into a new microplate, pre-react for 20 minutes; take 20 μL mixture solution of antibody and standard into the Ractopamine microplate, react for 1 minute, discard the liquid in the well, and pat dry on absorbent paper, then add 20 μL mixture solution and react for 1 minute, repeat for 5 times altogether, the pre-reaction product added into each well is 100 μL altogether; add HRP labeled secondary antibody, 100 μL per well, react for 45 minutes at 37° C.; wash the plate; add chromogenic agent 100 μL, react for 15 minutes at 37° C.; and finally add 50 μL termination solution, then measure the OD450.
Group 2: add 60 μL the standard and the Ractopamine antibody respectively into a new microplate, pre-react for 20 minutes; take 100 μL mixture solution of antibody and standard into the Ractopamine microplate, react for 30 minutes, discard the liquid in the well, and pat dry on absorbent paper; wash the plate; add HRP labeled secondary antibody, 100 μL per well, react for 45 minutes at 37° C., wash the plate; add chromogenic agent 100 μL, react for 15 minutes at 37° C.; and finally add 50 μL termination solution, then measure the OD450.

chloramphenicol Mcab = assay: Competitive chemiluminescence immunoassay for chloramphenicol (Embodiment 5)
Description: • 1) Preparation of the chloramphenicol microplate: add chloramphenicol-BSA conjugate into the ELISA plate, 100 μL per well, overnight at 4° C., wash 3 times with a separation time of 3 minutes each, pat dry; add 5% skimmed milk powder 130 μL per well, block for 1 hour at 37° C., pat dry; wash 3 times with wash buffer, pat dry, leave for reservation. Prepare the chloramphenicol standard solutions with wash buffer: 0 ppb, 0.01 ppb, 0.03 ppb, 0.09 ppb, 0.27 ppb, 0.81 ppb. • 2) Mix the standard and the chloramphenicol Mcab in equal volumes, incubate for 20 minutes at 37° C.; then transfer the reaction product into chloramphenicol microplate; • Group 1: transfer the reaction product into ELISA plate, 20 μL/well, reaction for 1 minute at 37° C., discard liquid in the well, repeat the operation 5 times, and the pre-reaction product added to each well is total 100 μL; • Group 2: one-time transfer the whole 100 μL reaction product into the chloramphenicol microplate, reacting for 20 minute at 37° C.; • 3) Wash 3 times; add HRP labeled secondary antibody, 100 μL per well, react for 45 minutes at 37° C.; wash 5 times; after adding luminous substrate, chemiluminescence measuring instrument is applied to measure the luminous intensity.

O=C(O)c1cn(C2CC2)c2cc(N3CCNCC3)c(F)cc2c1=O [Ciprofloxacin]
OD450 (ciprofloxacin antibody [1]; Group 1 (20 min pre-incubation, then 30 min on plate), ciprofloxacin 1 ppb): 1.975 | OD450 (ciprofloxacin antibody [1]; Group 1 (20 min pre-incubation, then 30 min on plate), ciprofloxacin 3 ppb): 1.632 | OD450 (ciprofloxacin antibody [1]; Group 1 (20 min pre-incubation, then 30 min on plate), ciprofloxacin 9 ppb): 1.448 | OD450 (ciprofloxacin antibody [1]; Group 1 (20 min pre-incubation, then 30 min on plate), ciprofloxacin 27 ppb): 0.924 | OD450 (ciprofloxacin antibody [1]; Group 1 (20 min pre-incubation, then 30 min on plate), ciprofloxacin 81 ppb): 0.483 | OD450 (ciprofloxacin antibody [1]; Group 2 (no pre-incubation, 30 min on plate), ciprofloxacin 1 ppb): 1.904 | OD450 (ciprofloxacin antibody [1]; Group 2 (no pre-incubation, 30 min on plate), ciprofloxacin 3 ppb): 1.643 | OD450 (ciprofloxacin antibody [1]; Group 2 (no pre-incubation, 30 min on plate), ciprofloxacin 9 ppb): 1.203 | OD450 (ciprofloxacin antibody [1]; Group 2 (no pre-incubation, 30 min on plate), ciprofloxacin 27 ppb): 0.952 | OD450 (ciprofloxacin antibody [1]; Group 2 (no pre-incubation, 30 min on plate), ciprofloxacin 81 ppb): 0.523 | OD450 (ciprofloxacin antibody [2]; ciprofloxacin 1 ppb, re-reaction 1 min, 6 times): 0.863 and 0.813 | OD450 (ciprofloxacin antibody [2]; ciprofloxacin 1 ppb, re-reaction time 5 min): 1.21 and 1.189 | OD450 (ciprofloxacin antibody [2]; ciprofloxacin 1 ppb, re-reaction time 10 min): 1.517 and 1.488 | OD450 (ciprofloxacin antibody [2]; ciprofloxacin 1 ppb, re-reaction time 20 min): 1.884 and 1.874 | OD450 (ciprofloxacin antibody [2]; ciprofloxacin 1 ppb, re-reaction time 30 min): 2.036 and 1.989 | OD450 (ciprofloxacin antibody [2]; ciprofloxacin 5 ppb, re-reaction 1 min, 6 times): 0.412 and 0.372 | OD450 (ciprofloxacin antibody [2]; ciprofloxacin 5 ppb, re-reaction time 5 min): 0.706 and 0.664 | OD450 (ciprofloxacin antibody [2]; ciprofloxacin 5 ppb, re-reaction time 10 min): 1.003 and 0.984 | OD450 (ciprofloxacin antibody [2]; ciprofloxacin 5 ppb, re-reaction time 20 min): 1.342 and 1.343 | OD450 (ciprofloxacin antibody [2]; ciprofloxacin 5 ppb, re-reaction time 30 min): 1.501 and 1.499 | OD450 (ciprofloxacin antibody [2]; ciprofloxacin 10 ppb, re-reaction 1 min, 6 times): 0.302 and 0.332 | OD450 (ciprofloxacin antibody [2]; ciprofloxacin 10 ppb, re-reaction time 5 min): 0.565 and 0.485 | OD450 (ciprofloxacin antibody [2]; ciprofloxacin 10 ppb, re-reaction time 10 min): 0.894 and 0.749 | OD450 (ciprofloxacin antibody [2]; ciprofloxacin 10 ppb, re-reaction time 20 min): 1.204 and 1.101 | OD450 (ciprofloxacin antibody [2]; ciprofloxacin 10 ppb, re-reaction time 30 min): 1.269 and 1.182 | IC50 (ciprofloxacin antibody [2]; competitive reaction with solid phase antigen in a short time after pre-reaction): 1 ppb | IC50 (ciprofloxacin antibody [2]; long re-reaction time (before improvement)): 10 ppb | OD450 (ciprofloxacin antibody [3]; ciprofloxacin 1 ppb, pre-incubation time 5 min): 0.337 | OD450 (ciprofloxacin antibody [3]; ciprofloxacin 1 ppb, pre-incubation time 10 min): 0.385 and 0.353 | OD450 (ciprofloxacin antibody [3]; ciprofloxacin 1 ppb, pre-incubation time 15 min): 0.399 and 0.401 | OD450 (ciprofloxacin antibody [3]; ciprofloxacin 1 ppb, pre-incubation time 20 min): 0.434 and 0.439 | OD450 (ciprofloxacin antibody [3]; ciprofloxacin 5 ppb, pre-incubation time 5 min): 0.17 and 0.169 | OD450 (ciprofloxacin antibody [3]; ciprofloxacin 5 ppb, pre-incubation time 10 min): 0.175 and 0.187 | OD450 (ciprofloxacin antibody [3]; ciprofloxacin 5 ppb, pre-incubation time 15 min): 0.193 and 0.206 | OD450 (ciprofloxacin antibody [3]; ciprofloxacin 5 ppb, pre-incubation time 20 min): 0.213 and 0.22 | OD450 (ciprofloxacin antibody [3]; ciprofloxacin 10 ppb, pre-incubation time 5 min): 0.15 and 0.133 | OD450 (ciprofloxacin antibody [3]; ciprofloxacin 10 ppb, pre-incubation time 10 min): 0.152 and 0.136 | OD450 (ciprofloxacin antibody [3]; ciprofloxacin 10 ppb, pre-incubation time 15 min): 0.153 and 0.149 | OD450 (ciprofloxacin antibody [3]; ciprofloxacin 10 ppb, pre-incubation time 20 min): 0.169 and 0.178 | OD (Ractopamine antibody; Group 1 (20 min pre-reaction; 20 μL, 1 min, 5 times), concentration 0.05 ppb): 1.175 | OD (Ractopamine antibody; Group 1 (20 min pre-reaction; 20 μL, 1 min, 5 times), concentration 0.15 ppb): 0.803 | OD (Ractopamine antibody; Group 1 (20 min pre-reaction; 20 μL, 1 min, 5 times), concentration 0.45 ppb): 0.517 | OD (Ractopamine antibody; Group 1 (20 min pre-reaction; 20 μL, 1 min, 5 times), concentration 1.35 ppb): 0.324 | OD (Ractopamine antibody; Group 1 (20 min pre-reaction; 20 μL, 1 min, 5 times), concentration 4.05 ppb): 0.183 | OD (Ractopamine antibody; Group 2 (20 min pre-reaction; 100 μL, 30 min), concentration 0.05 ppb): 1.584 | OD (Ractopamine antibody; Group 2 (20 min pre-reaction; 100 μL, 30 min), concentration 0.15 ppb): 1.391 | OD (Ractopamine antibody; Group 2 (20 min pre-reaction; 100 μL, 30 min), concentration 0.45 ppb): 1.003 | OD (Ractopamine antibody; Group 2 (20 min pre-reaction; 100 μL, 30 min), concentration 1.35 ppb): 0.602 | OD (Ractopamine antibody; Group 2 (20 min pre-reaction; 100 μL, 30 min), concentration 4.05 ppb): 0.323

O=C(N[C@H](CO)[C@H](O)c1ccc([N+](=O)[O-])cc1)C(Cl)Cl [chloramphenicol]
B/B0 (chloramphenicol Mcab; Group 1 (20 μL/well, 1 min, 5 times), chloramphenicol standard 0.01 ppb): 0.88 and 0.89 | B/B0 (chloramphenicol Mcab; Group 1 (20 μL/well, 1 min, 5 times), chloramphenicol standard 0.03 ppb): 0.66 and 0.64 | B/B0 (chloramphenicol Mcab; Group 1 (20 μL/well, 1 min, 5 times), chloramphenicol standard 0.09 ppb): 0.49 and 0.48 | B/B0 (chloramphenicol Mcab; Group 1 (20 μL/well, 1 min, 5 times), chloramphenicol standard 0.27 ppb): 0.21 and 0.23 | B/B0 (chloramphenicol Mcab; Group 1 (20 μL/well, 1 min, 5 times), chloramphenicol standard 0.81 ppb): 0.11 and 0.17 | B/B0 (chloramphenicol Mcab; Group 2 (one-time 100 μL, 20 min), chloramphenicol standard 0.01 ppb): 0.96 and 0.94 | B/B0 (chloramphenicol Mcab; Group 2 (one-time 100 μL, 20 min), chloramphenicol standard 0.03 ppb): 0.88 and 0.89 | B/B0 (chloramphenicol Mcab; Group 2 (one-time 100 μL, 20 min), chloramphenicol standard 0.09 ppb): 0.69 | B/B0 (chloramphenicol Mcab; Group 2 (one-time 100 μL, 20 min), chloramphenicol standard 0.27 ppb): 0.46 and 0.48 | B/B0 (chloramphenicol Mcab; Group 2 (one-time 100 μL, 20 min), chloramphenicol standard 0.81 ppb): 0.28 and 0.27
